Results reported in the supplement of paper PMC10307832.

Columns and labels:
Assay in all cases: relative viability (nuclei count vs DMSO), 5 days (fraction); higher = more cells survive
[1] = compound: CC1=C(C(=NN1)C)CC2=C(C3=C(S2)N(C(=O)N(C3=O)C)CC(C)C)C(=O)N4C[C@@H](CO4)O + Nc1ncn([C@H]2C[C@H](O)[C@@H](CO)O2)c(=O)n1 [Decitabine] (partner 2 µM)
Method in brief: (§1)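 Cells from lung cancer lines were seeded into 1536-well plates and, one day later, dosed by pin tool. Treatments were either a single drug or a fixed dose of an anchor drug with five library-drug doses (not always all listed) in √10 steps. After 5 days, nuclei were stained in a one-step fixation (final 0.05% Triton X-100, 1% formaldehyde, 1 ug/ml Hoechst) and counted on 4× images, and relative viability is the treated-to-vehicle nuclei ratio, as the median of duplicate plates.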

IDH-C35 + OSI-027 = compound: Cc1ccccc1C(C(=O)NC1CCCCC1)N(C(=O)Cn1ccnc1C)c1cccc(F)c1 [IDH-C35] + COc1cccc2cc(-c3nc([C@H]4CC[C@H](C(=O)O)CC4)n4ncnc(N)c34)[nH]c12 [OSI-027] (partner 0.5 µM)
Method in brief: as §1

[2] = compound: CC1=C(C(=NN1)C)CC2=C(C3=C(S2)N(C(=O)N(C3=O)C)CC(C)C)C(=O)N4C[C@@H](CO4)O + C[C@@H](Oc1cc(-c2cnn(C3CCNCC3)c2)cnc1N)c1c(Cl)ccc(F)c1Cl [Crizotinib] (partner 1 µM)
Method in brief: as §1

[3] = compound: CC1=C(C(=NN1)C)CC2=C(C3=C(S2)N(C(=O)N(C3=O)C)CC(C)C)C(=O)N4C[C@@H](CO4)O + COc1cccc2cc(-c3nc([C@H]4CC[C@H](C(=O)O)CC4)n4ncnc(N)c34)[nH]c12 [OSI-027] (partner 0.5 µM)
Method in brief: as §1

PC-3 [JPC-3] was tested, and the relative viability ([1]; first compound 0.0025 µM) was 0.843, the relative viability ([1]; first compound 0.007906 µM) was 0.787 and the relative viability ([1]; first compound 0.025 µM) was 0.9. For the same cell line, the relative viability ([1]; first compound 0.07906 µM) was 0.843, the relative viability ([1]; first compound 0.25 µM) was 0.996 and the relative viability (IDH-C35 + OSI-027; first compound 0.08 µM) was 0.767. It also gave a relative viability (IDH-C35 + OSI-027; first compound 0.253 µM) of 0.74, a relative viability (IDH-C35 + OSI-027; first compound 0.8 µM) of 0.747 and a relative viability (IDH-C35 + OSI-027; first compound 2.53 µM) of 0.809. It also gave a relative viability (IDH-C35 + OSI-027; first compound 8 µM) of 0.747, a relative viability ([2]; first compound 0.0025 µM) of 1.02 and a relative viability ([2]; first compound 0.007906 µM) of 0.898. For the same cell line, the relative viability ([2]; first compound 0.025 µM) was 0.93, the relative viability ([2]; first compound 0.07906 µM) was 0.861 and the relative viability ([2]; first compound 0.25 µM) was 1.08. For the same cell line, the relative viability ([3]; first compound 0.0025 µM) was 0.763, the relative viability ([3]; first compound 0.007906 µM) was 0.679 and the relative viability ([3]; first compound 0.025 µM) was 0.755. The relative viability ([3]; first compound 0.07906 µM) was 0.785 and the relative viability ([3]; first compound 0.25 µM) was 0.859.

NCI-H2228 was tested, and the relative viability (IDH-C35 + OSI-027; first compound 0.08 µM) was 0.729, the relative viability (IDH-C35 + OSI-027; first compound 0.253 µM) was 0.687 and the relative viability (IDH-C35 + OSI-027; first compound 0.8 µM) was 0.55. It also gave a relative viability (IDH-C35 + OSI-027; first compound 2.53 µM) of 0.586, a relative viability (IDH-C35 + OSI-027; first compound 8 µM) of 0.535 and a relative viability ([2]; first compound 0.0025 µM) of 0.421. For the same cell line, the relative viability ([2]; first compound 0.007906 µM) was 0.523, the relative viability ([2]; first compound 0.025 µM) was 0.473 and the relative viability ([2]; first compound 0.07906 µM) was 0.505. It also gave a relative viability ([2]; first compound 0.25 µM) of 0.469, a relative viability ([3]; first compound 0.0025 µM) of 0.68 and a relative viability ([3]; first compound 0.007906 µM) of 0.61. For the same cell line, the relative viability ([3]; first compound 0.025 µM) was 0.683, the relative viability ([3]; first compound 0.07906 µM) was 0.609 and the relative viability ([3]; first compound 0.25 µM) was 0.649.

Cell Line HOP-62 has a relative viability ([1]; first compound 0.0025 µM) of 0.197, a relative viability ([1]; first compound 0.007906 µM) of 0.218 and a relative viability ([1]; first compound 0.025 µM) of 0.268. For the same cell line, the relative viability ([1]; first compound 0.07906 µM) was 0.165, the relative viability ([1]; first compound 0.25 µM) was 0.279 and the relative viability (IDH-C35 + OSI-027; first compound 0.08 µM) was 0.895. The relative viability (IDH-C35 + OSI-027; first compound 0.253 µM) was 0.801, the relative viability (IDH-C35 + OSI-027; first compound 0.8 µM) was 0.76 and the relative viability (IDH-C35 + OSI-027; first compound 2.53 µM) was 0.79. For the same cell line, the relative viability (IDH-C35 + OSI-027; first compound 8 µM) was 0.78, the relative viability ([2]; first compound 0.0025 µM) was 0.807 and the relative viability ([2]; first compound 0.007906 µM) was 1.11. It also gave a relative viability ([2]; first compound 0.025 µM) of 1, a relative viability ([2]; first compound 0.07906 µM) of 0.819 and a relative viability ([2]; first compound 0.25 µM) of 1.12. It also gave a relative viability ([3]; first compound 0.0025 µM) of 0.896, a relative viability ([3]; first compound 0.007906 µM) of 0.849 and a relative viability ([3]; first compound 0.025 µM) of 0.756. It also gave a relative viability ([3]; first compound 0.07906 µM) of 0.763 and a relative viability ([3]; first compound 0.25 µM) of 0.909.

Cell Line HARA has a relative viability ([1]; first compound 0.0025 µM) of 0.578, a relative viability ([1]; first compound 0.007906 µM) of 0.578 and a relative viability ([1]; first compound 0.025 µM) of 0.653. The relative viability ([1]; first compound 0.07906 µM) was 0.581, the relative viability ([1]; first compound 0.25 µM) was 0.524 and the relative viability (IDH-C35 + OSI-027; first compound 0.08 µM) was 0.607. For the same cell line, the relative viability (IDH-C35 + OSI-027; first compound 0.253 µM) was 0.735, the relative viability (IDH-C35 + OSI-027; first compound 0.8 µM) was 0.484 and the relative viability (IDH-C35 + OSI-027; first compound 8 µM) was 0.405. For the same cell line, the relative viability ([2]; first compound 0.0025 µM) was 1.09, the relative viability ([2]; first compound 0.007906 µM) was 1.19 and the relative viability ([2]; first compound 0.025 µM) was 0.915. The relative viability ([2]; first compound 0.07906 µM) was 0.987, the relative viability ([2]; first compound 0.25 µM) was 1.04 and the relative viability ([3]; first compound 0.0025 µM) was 0.548. It also gave a relative viability ([3]; first compound 0.007906 µM) of 0.565, a relative viability ([3]; first compound 0.025 µM) of 0.513 and a relative viability ([3]; first compound 0.07906 µM) of 0.506. The relative viability ([3]; first compound 0.25 µM) was 0.489.
